Reference: PubChem BioAssay AID1918991 (Molecular Pharmacology Branch, DTP, NCI, 2023)
One block for each compound: values may come before it.

System: 186277-243-T-J2-PDC complex spheroid growth
Test: Anticancer human tumor 186277-243-T-J2-PDC patient-derived colon adenocarcinoma cell line growth inhibition [AhR]
Conditions: for IC50: curve of first compound; for viability, T/C: stronger effect = lower value
Outline: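 Spheroids combined tumor cells with HUVEC endothelial cells and human MSCs as stroma. AhR antagonists were paired with standard or investigational drugs, each dosed in half-log steps down from near clinical Cmax, or from 10 microM where Cmax was unknown.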

[1] = second compound 0.1 µM, first compound 0.0316 µM
[2] = second compound 0.1 µM, first compound 0.1 µM
[3] = second compound 0.1 µM, first compound 0.316 µM
[4] = second compound 0.1 µM, first compound 1 µM
[5] = second compound 0.1 µM, first compound 3.16 µM
[6] = second compound 0.1 µM, first compound 10 µM
[7] = second compound 0.316 µM, first compound 0.0316 µM
[8] = second compound 0.316 µM, first compound 0.1 µM
[9] = second compound 0.316 µM, first compound 0.316 µM
[10] = second compound 0.316 µM, first compound 1 µM
[11] = second compound 0.316 µM, first compound 3.16 µM
[12] = second compound 0.316 µM, first compound 10 µM
[13] = second compound 1 µM, first compound 0.0316 µM
[14] = second compound 1 µM, first compound 0.1 µM
[15] = second compound 1 µM, first compound 0.316 µM
[16] = second compound 1 µM, first compound 1 µM
[17] = second compound 1 µM, first compound 3.16 µM
[18] = second compound 1 µM, first compound 10 µM
[19] = second compound 3.16 µM, first compound 0.0316 µM
[20] = second compound 3.16 µM, first compound 0.1 µM
[21] = second compound 3.16 µM, first compound 0.316 µM
[22] = second compound 3.16 µM, first compound 1 µM
[23] = second compound 3.16 µM, first compound 3.16 µM
[24] = second compound 3.16 µM, first compound 10 µM
[25] = second compound 10 µM, first compound 0.0316 µM
[26] = second compound 10 µM, first compound 0.1 µM
[27] = second compound 10 µM, first compound 0.316 µM
[28] = second compound 10 µM, first compound 1 µM
[29] = second compound 10 µM, first compound 3.16 µM
[30] = second compound 10 µM, first compound 10 µM
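Also: spheroids exposed to compounds for seven days before the viability read.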
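For viability, T/C in this document: luminescent signal used as a stand-in for viable cell amount; 100% = DMSO vehicle control wells.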

SMILES: CC1(C)CCC(CN2CCN(c3ccc(C(=O)NS(=O)(=O)c4ccc(NCC5CCOCC5)c([N+](=O)[O-])c4)c(Oc4cnc5[nH]ccc5c4)c3)CC2)=C(c2ccc(Cl)cc2)C1 + Cc1ccccc1N=Nc1ccc(NC(=O)c2ccnn2C)c(C)c1
IC50 (second compound 0.1 µM): 7.46 µM
IC50 (second compound 0.316 µM): 6.9 µM
IC50 (second compound 1 µM): 7.32 µM
IC50 (second compound 3.16 µM): 6.94 µM
IC50 (second compound 10 µM): 6.27 µM
viability, T/C [1]: 95.1%
viability, T/C [2]: 98.9%
viability, T/C [3]: 115%
viability, T/C [4]: 110%
viability, T/C [5]: 103%
viability, T/C [6]: 31.8%
viability, T/C [7]: 94.1%
viability, T/C [8]: 108%
viability, T/C [9]: 96.4%
viability, T/C [10]: 100%
viability, T/C [11]: 87.9%
viability, T/C [12]: 31.7%
viability, T/C [13]: 103%
viability, T/C [14]: 99.3%
viability, T/C [15]: 110%
viability, T/C [16]: 98.2%
viability, T/C [17]: 110%
viability, T/C [18]: 29.8%
viability, T/C [19]: 91.3%
viability, T/C [20]: 91.8%
viability, T/C [21]: 100%
viability, T/C [22]: 94.3%
viability, T/C [23]: 91.2%
viability, T/C [24]: 30.9%
viability, T/C [25]: 88.7%
viability, T/C [26]: 82.5%
viability, T/C [27]: 95.3%
viability, T/C [28]: 92.5%
viability, T/C [29]: 85.7%
viability, T/C [30]: 25.5%

SMILES: Cn1ncnc1C1c2n[nH]c(=O)c3cc(F)cc(c23)NC1c1ccc(F)cc1 (stereo not given) + Cc1ccccc1N=Nc1ccc(NC(=O)c2ccnn2C)c(C)c1
IC50 (second compound 0.1 µM): > 0.1 µM
IC50 (second compound 0.316 µM): > 0.1 µM
IC50 (second compound 1 µM): > 0.1 µM
IC50 (second compound 3.16 µM): > 0.1 µM
IC50 (second compound 10 µM): > 0.1 µM
viability, T/C (second compound 0.1 µM, first compound 0.000316 µM): 107%
viability, T/C (second compound 0.1 µM, first compound 0.001 µM): 101%
viability, T/C (second compound 0.1 µM, first compound 0.00316 µM): 107%
viability, T/C (second compound 0.1 µM, first compound 0.01 µM): 93.2%
viability, T/C [1]: 108%
viability, T/C [2]: 107%
viability, T/C (second compound 0.316 µM, first compound 0.000316 µM): 98.8%
viability, T/C (second compound 0.316 µM, first compound 0.001 µM): 113%
viability, T/C (second compound 0.316 µM, first compound 0.00316 µM): 101%
viability, T/C (second compound 0.316 µM, first compound 0.01 µM): 104%
viability, T/C [7]: 107%
viability, T/C [8]: 103%
viability, T/C (second compound 1 µM, first compound 0.000316 µM): 109%
viability, T/C (second compound 1 µM, first compound 0.001 µM): 98.3%
viability, T/C (second compound 1 µM, first compound 0.00316 µM): 109%
viability, T/C (second compound 1 µM, first compound 0.01 µM): 116%
viability, T/C [13]: 105%
viability, T/C [14]: 118%
viability, T/C (second compound 3.16 µM, first compound 0.000316 µM): 101%
viability, T/C (second compound 3.16 µM, first compound 0.001 µM): 101%
viability, T/C (second compound 3.16 µM, first compound 0.00316 µM): 113%
viability, T/C (second compound 3.16 µM, first compound 0.01 µM): 105%
viability, T/C [19]: 119%
viability, T/C [20]: 112%
viability, T/C (second compound 10 µM, first compound 0.000316 µM): 95.4%
viability, T/C (second compound 10 µM, first compound 0.001 µM): 96.7%
viability, T/C (second compound 10 µM, first compound 0.00316 µM): 101%
viability, T/C (second compound 10 µM, first compound 0.01 µM): 105%
viability, T/C [25]: 95.3%
viability, T/C [26]: 98.7%

SMILES: NS(=O)(=O)OCC1CC(n2ccc3c(NC4CCc5ccccc54)ncnc32)CC1O (stereo not given) + Cc1ccccc1N=Nc1ccc(NC(=O)c2ccnn2C)c(C)c1
IC50 (second compound 0.1 µM): 0.853 µM
IC50 (second compound 0.316 µM): 0.633 µM
IC50 (second compound 1 µM): 0.59 µM
IC50 (second compound 3.16 µM): 0.457 µM
IC50 (second compound 10 µM): 0.304 µM
viability, T/C [1]: 106%
viability, T/C [2]: 97.9%
viability, T/C [3]: 77.6%
viability, T/C [4]: 43.7%
viability, T/C [5]: 23.1%
viability, T/C [6]: 7.4%
viability, T/C [7]: 109%
viability, T/C [8]: 117%
viability, T/C [9]: 67.1%
viability, T/C [10]: 38%
viability, T/C [11]: 19.6%
viability, T/C [12]: 8.23%
viability, T/C [13]: 110%
viability, T/C [14]: 110%
viability, T/C [15]: 61.4%
viability, T/C [16]: 38.6%
viability, T/C [17]: 20.1%
viability, T/C [18]: 9.57%
viability, T/C [19]: 103%
viability, T/C [20]: 97.5%
viability, T/C [21]: 50.2%
viability, T/C [22]: 36.3%
viability, T/C [23]: 13.6%
viability, T/C [24]: 5.34%
viability, T/C [25]: 93.7%
viability, T/C [26]: 80%
viability, T/C [27]: 43.5%
viability, T/C [28]: 29.8%
viability, T/C [29]: 10.1%
viability, T/C [30]: 4.53%

Second part, led by results:

IC50 (second compound 0.1 µM): > 3 µM
IC50 (second compound 0.316 µM): > 3 µM
IC50 (second compound 1 µM): > 3 µM
IC50 (second compound 3.16 µM): > 3 µM
IC50 (second compound 10 µM): > 3 µM
SMILES: CCN(c1cc(-c2ccc(CN3CCOCC3)cc2)cc(C(=O)NCc2c(C)cc(C)[nH]c2=O)c1C)C1CCOCC1 + Cc1ccccc1N=Nc1ccc(NC(=O)c2ccnn2C)c(C)c1
viability, T/C (second compound 0.1 µM, first compound 0.00949 µM): 105%
viability, T/C (second compound 0.1 µM, first compound 0.03 µM): 118%
viability, T/C (second compound 0.1 µM, first compound 0.0949 µM): 112%
viability, T/C (second compound 0.1 µM, first compound 0.3 µM): 108%
viability, T/C (second compound 0.1 µM, first compound 0.949 µM): 102%
viability, T/C (second compound 0.1 µM, first compound 3 µM): 102%
viability, T/C (second compound 0.316 µM, first compound 0.00949 µM): 95.7%
viability, T/C (second compound 0.316 µM, first compound 0.03 µM): 109%
viability, T/C (second compound 0.316 µM, first compound 0.0949 µM): 100%
viability, T/C (second compound 0.316 µM, first compound 0.3 µM): 105%
viability, T/C (second compound 0.316 µM, first compound 0.949 µM): 103%
viability, T/C (second compound 0.316 µM, first compound 3 µM): 112%
viability, T/C (second compound 1 µM, first compound 0.00949 µM): 104%
viability, T/C (second compound 1 µM, first compound 0.03 µM): 102%
viability, T/C (second compound 1 µM, first compound 0.0949 µM): 102%
viability, T/C (second compound 1 µM, first compound 0.3 µM): 94.5%
viability, T/C (second compound 1 µM, first compound 0.949 µM): 100%
viability, T/C (second compound 1 µM, first compound 3 µM): 112%
viability, T/C (second compound 3.16 µM, first compound 0.00949 µM): 91%
viability, T/C (second compound 3.16 µM, first compound 0.03 µM): 94.7%
viability, T/C (second compound 3.16 µM, first compound 0.0949 µM): 99.5%
viability, T/C (second compound 3.16 µM, first compound 0.3 µM): 94%
viability, T/C (second compound 3.16 µM, first compound 0.949 µM): 107%
viability, T/C (second compound 3.16 µM, first compound 3 µM): 104%
viability, T/C (second compound 10 µM, first compound 0.00949 µM): 89.9%
viability, T/C (second compound 10 µM, first compound 0.03 µM): 91.2%
viability, T/C (second compound 10 µM, first compound 0.0949 µM): 86.3%
viability, T/C (second compound 10 µM, first compound 0.3 µM): 79.8%
viability, T/C (second compound 10 µM, first compound 0.949 µM): 84.2%
viability, T/C (second compound 10 µM, first compound 3 µM): 93.2%

IC50 (second compound 0.1 µM): > 10 µM
IC50 (second compound 0.316 µM): > 10 µM
IC50 (second compound 1 µM): > 10 µM
IC50 (second compound 3.16 µM): > 10 µM
IC50 (second compound 10 µM): > 10 µM
SMILES: COc1cc(Nc2ncc3c(n2)-c2ccc(Cl)cc2C(c2c(F)cccc2OC)=NC3)ccc1C(=O)O + Cc1ccccc1N=Nc1ccc(NC(=O)c2ccnn2C)c(C)c1
viability, T/C [1]: 132%
viability, T/C [2]: 125%
viability, T/C [3]: 117%
viability, T/C [4]: 107%
viability, T/C [5]: 115%
viability, T/C [6]: 120%
viability, T/C [7]: 134%
viability, T/C [8]: 119%
viability, T/C [9]: 114%
viability, T/C [10]: 108%
viability, T/C [11]: 101%
viability, T/C [12]: 117%
viability, T/C [13]: 130%
viability, T/C [14]: 123%
viability, T/C [15]: 114%
viability, T/C [16]: 107%
viability, T/C [17]: 107%
viability, T/C [18]: 117%
viability, T/C [19]: 133%
viability, T/C [20]: 118%
viability, T/C [21]: 110%
viability, T/C [22]: 103%
viability, T/C [23]: 106%
viability, T/C [24]: 114%
viability, T/C [25]: 108%
viability, T/C [26]: 104%
viability, T/C [27]: 105%
viability, T/C [28]: 96.5%
viability, T/C [29]: 93.3%
viability, T/C [30]: 102%
